Legend:
[1] = system: digestive enzymes from mirror carp; assay: In vitro digestion of non-natural dipeptides LD-I / DL-II with digestive enzymes from mirror carp; assay type: in vitro ADME, Cyprinus carpio morpha noblis; settings: for portion of dipeptide cleaved: after 5 hours, in vitro reaction conditions; for speed of cleavage / digestion: non-natural dipeptides
Experimental: (§1) For this, the enzymes were isolated from the digestive tracts of the fishes and shrimps. The chemically synthesized dipeptides L-EAA-D-Met (LD-I) and D-Met-L-EAA (DL-II) were then reacted with the enzyme solutions obtained. For better comparability of the digestibilities of dipeptides of various species, identical conditions were selected for the in vitro digestion studies (37° C., pH 9). All non-natural dipeptides L-EAA-D-Met (LD-I) and D-Met-L-EAA (DL-II) are cleaved by digestive enzymes of the omnivorous mirror carp (see FIG. 7), of the herbivorous grass carp (see FIG. 8), of the carnivorous rainbow trout (see FIG. 11), of the omnivorous whiteleg shrimp (see FIG. 10) and of the chicken (see FIG. 17). The cleavages of D-Met-L-EAA (DL-II) proceed somewhat more slowly than the cleavages of the analogous L-EAA-D-Met (LD-I) dipeptides. With digestive enzymes of the Tilapia (see FIG. 9), in contrast, D-Met-L-EAA (DL-II) could be cleaved more quickly than L-EAA-D-Met (LD-I) dipeptides. […] After just 5 hours, under in vitro reaction conditions the bulk of the lysine-containing dipeptides had been cleaved by all of the digestive enzymes used.
a) Isolation of the Digestive Enzymes from Mirror Carp (Cyprinus carpio morpha noblis)
The digestive enzymes were isolated according to the method of EID and MATTY (Aquaculture 1989, 79, 111-119). For this, the intestines were removed from five one-year-old mirror carp (Cyprinus carpio morpha noblis) and processed as described in Example 18.
(§2) b) Procedure for the In Vitro Digestion Studies
(§3) D-Met-L-EAA (DL-II) or L-EAA-D-Met (LD-I) was taken up in TRIS/HCl buffer solution and the enzyme solution was added. As comparison and to assess the rate of purely chemical cleavage, a blank without enzyme solution was prepared in each case (see Table 4). A sample was taken from time to time and its composition was detected and quantified by means of a calibrated HPLC. The conversion was determined as the quotient of the area of methionine and the area of D-Met-L-EAA (DL-II) or L-EAA-D-Met (LD-I) (see FIG. 7).

[2] = system: digestive enzymes from whiteleg shrimps; assay: In vitro digestion of non-natural dipeptides LD-I / DL-II with digestive enzymes from whiteleg shrimps; assay type: in vitro ADME, Litopenaeus vannamei; settings: whiteleg shrimp enzymes; for portion of dipeptide cleaved: after 5 hours, in vitro reaction conditions; for speed of cleavage / digestion: non-natural dipeptides
Experimental: as §1
a) Isolation of the Digestive Enzymes from Whiteleg Shrimps (Litopenaeus vannamei)
The digestive enzymes were isolated according to the method of Ezquerra and Garcia-Carreno (J. Food Biochem. 1999, 23, 59-74). For this, the hepatopancreas was removed from five kilograms of whiteleg shrimps (Litopenaeus vannamei) and comminuted in a mixer together with crushed ice. Further processing was carried out similarly to Example 18.
as §2
The in vitro investigations were carried out similarly to Example 19 (see Table 8, FIG. 10).

[3] = system: digestive enzymes of the Tilapia; assay: In vitro digestion of non-natural dipeptides LD-I / DL-II with digestive enzymes from Tilapia; assay type: in vitro ADME; settings: for portion of dipeptide cleaved: after 5 hours, in vitro reaction conditions; for speed of cleavage / digestion: non-natural dipeptides
Experimental: as §1

[4] = system: digestive enzymes from rainbow trout; assay: In vitro digestion of non-natural dipeptides LD-I / DL-II with digestive enzymes from rainbow trout; assay type: in vitro ADME, Oncorhynchus mykiss; settings: for portion of dipeptide cleaved: after 5 hours, in vitro reaction conditions; for speed of cleavage / digestion: non-natural dipeptides
Experimental: as §1
a) Isolation of the Digestive Enzymes from Rainbow Trout (Oncorhynchus mykiss)
The digestive enzymes were isolated according to the method of EID and MATTY (Aquaculture 1989, 79, 111-119). For this, the intestines were removed from six one-year-old rainbow trout (Oncorhynchus mykiss) and processed as described in Example 18.
as §2
The in vitro investigations were carried out similarly to Example 19 (see Table 6, FIG. 11).

[5] = system: digestive enzymes of the herbivorous grass carp; assay: In vitro digestion of non-natural dipeptides LD-I / DL-II with digestive enzymes from grass carp; assay type: in vitro ADME; settings: for portion of dipeptide cleaved: after 5 hours, in vitro reaction conditions; for speed of cleavage / digestion: non-natural dipeptides
Experimental: as §1

[6] = system: digestive enzymes from chicken; assay: In vitro digestion of non-natural dipeptides LD-I / DL-II with digestive enzymes from chicken; assay type: in vitro ADME; settings: for portion of dipeptide cleaved: after 5 hours, in vitro reaction conditions; for speed of cleavage / digestion: non-natural dipeptides
Experimental: as §1
a) Isolation of the Digestive Enzymes from Chicken
The digestive enzymes were isolated according to the method of EID and MATTY (Aquaculture 1989, 79, 111-119). For this, the intestines were removed from a chicken and processed as described in Example 24.
as §2
as §3, with “case.” for “case (see Table 4).”, “(see Table 10,” for “(see”, “17).” for “7).”

Litopenaeus vannamei = settings: omnivorous shrimps Litopenaeus vannamei, Forster and Dominy 2006; cited from earlier work
ruminants = settings: in ruminants, WO00/28835; cited from earlier work

Molecule | portion of dipeptide cleaved [1] | speed of cleavage / digestion [1] | portion of dipeptide cleaved [2] | speed of cleavage / digestion [2] | portion of dipeptide cleaved [3] | speed of cleavage / digestion [3] | portion of dipeptide cleaved [4] | speed of cleavage / digestion [4] | portion of dipeptide cleaved [5] | speed of cleavage / digestion [5] | portion of dipeptide cleaved [6] | speed of cleavage / digestion [6] | effectiveness in feeding tests (Litopenaeus vannamei) | bioavailability (ruminants)
CSCC[C@@H](N)C(=O)N[C@@H](CCCCN)C(=O)O.Cl.Cl (racemic) [DL-IIe, D-Met-L-Lys×2HCl] | bulk | particularly quickly | bulk | particularly quickly | bulk | particularly quickly | bulk | particularly quickly | bulk | particularly quickly | bulk | particularly quickly | – | –
CSCCC(N)C(=O)O (racemic) [DL-methionine] | – | – | – | – | – | – | – | – | – | – | – | – | equally as effective as L-methionine | –
CSCCC(O)C(=O)OC(C)C (racemic) [HMBi, racemic iso-propyl ester of MHA] | – | – | – | – | – | – | – | – | – | – | – | – | – | at least 50%
L-Lys-D-Met×2HCl [LD-Ie] | bulk | particularly quickly | bulk | particularly quickly | bulk | particularly quickly | bulk | particularly quickly | bulk | particularly quickly | bulk | particularly quickly | – | –
